Broadly, the ED50 is the dose that gives a 50% effect, or the effect in half of the subjects.

Data on five compounds can be found in patent publication US4598075A, “Cephalosporin compounds” (Tanabe Seiyaku Co., Ltd., priority 1982, dated 1986).

Converted amounts (≈) assume the structure as drawn. Where two headings read alike, the source gives them in different places.

Data set [1] has as its system Streptococcus faecalis CN-478. As to the kind of experiment: MIC by standard agar plate dilution method. It counts as cell-based. The note with it: Enterococcus faecalis. From the text:
The cephalosporin compound (I) of the present invention and pharmaceutically acceptable salts thereof show potent antimicrobial activity against a wide variety of microorganisms including those belonging to the genera Streptococcus (e.g., St. faecalis, St. pneumoniae), Staphylococcus (e.g., S. aureus, S. epidermidis) and Pseudomonas (e.g., Ps. aeruginosa, Ps. putida, Ps. stutzeri), and are particularly characterized by their potent antimicrobial activity against both gram-positive and gram-negative bacteria. […] The antimicrobial activity of 7β{(Z)-2-(2-aminothiazol-4-yl)-2-[(2-pyrrolidon-3-yl)oxyimino]-acetamido}-3-[(1-methyl-1H-tetrazol-5-yl)thio-methyl]-3-cephem-4-carboxylic acid against Staphylococcus aureus 252R is also more than 16 times stronger than those of Cefmenoxime and Ceftazidime. Moreover, the compound (I) and a salt thereof show potent antimicrobial activity against bacteria belonging to the genera Bacillus (e.g., B. subtilis), Escherichia (e.g., E. coli), Klebsiella (e.g., K. pneumoniae), Enterobacter (e.g., E. aerogenes, E. cloacae) and Serratia (e.g., S. marcescens).
(§1) The minimum inhibitory concentration (MIC, μg/ml) of a test compound was determined by means of a standard agar plate dilution method (based on the standard method of Japan Society of Chemotherapy). Media used in these experiments were Mueller-Hinton agar (MHA; Nissui).

For data set [2], the system named is Serratia marcescens 7006. As to the kind of experiment: MIC by standard agar plate dilution method. It counts as cell-based. How it is done: as §1
(§2) The results are shown in the following Table 2 together with the M. I. C. (μg/ml) of the test compound which was estimated in the same manner as described in Experiment I.

Data set [3] has as its system Escherichia coli KC-14. As to the kind of experiment: MIC by standard agar plate dilution method. The note with it: KC14, Table 2, read-out: M.I.C. (in parentheses). In kind it is cell-based. How it is done:
as §1, §2

In data set [4] the test system is Staphylococcus aureus Smith. As to the kind of experiment: MIC by standard agar plate dilution method. In kind it is cell-based. The note with it: read-out: M.I.C. (in parentheses). The protocol:
as §1, §2

For data set [5], the system named is Citrobacter freundii 916. Kind of data set: MIC by standard agar plate dilution method. In kind it is cell-based. How it is done: as §1, §2
Data set [6] deals with Enterobacter aerogenes 816. As to the kind of experiment: MIC by standard agar plate dilution method. It counts as cell-based. How it is done:
as §1, §2

The nature of data set [7]: Subcutaneous administration to SD-male rats for 14 consecutive days. In kind it is in vivo. The note with it: dose of 1000 mg for 14 consecutive days. How it is done:
For example, no rats die even after 7β-{(Z)-2-(2-aminothiazol-4-yl)-2-[(2-pyrrolidon-3-yl)oxyimino]acetamido}-3-(1-pyridiniomethyl)-3-cephem-4-carboxylate (l-isomer) is administered subcutaneously to SD-male rats at a dose of 1000 mg for 14 consecutive days.

Data set [8] has as its system Pseudomonas aeruginosa 4096. Kind of data set: MIC by standard agar plate dilution method. It counts as cell-based. The note with it: Table 1, Mueller-Hinton agar. How it is done: as §1
Data set [9] has as its system Staphylococcus aureus Terajima. Kind of data set: MIC by standard agar plate dilution method. The note with it: Table 1, Mueller-Hinton agar. In kind it is cell-based. The protocol:
as §1

In data set [10] the test system is Enterobacter cloacae TU-680. As to the kind of experiment: MIC by standard agar plate dilution method. The note with it: TU680, Table 1, Mueller-Hinton agar. In kind it is cell-based. How it is done: as §1
The test system of data set [11] is Klebsiella pneumoniae 5038. As to the kind of experiment: MIC by standard agar plate dilution method. It counts as cell-based. To be noted: Table 1, Mueller-Hinton agar. The protocol:
as §1

Data set [12] concerns Pseudomonas putida ATCC 12633. As to the kind of experiment: MIC by standard agar plate dilution method. It counts as cell-based. To be noted: ATCC12633, Table 1, Mueller-Hinton agar. How it is done: as §1
The subject of data set [13] is Bacillus subtilis ATCC 6633. Kind of data set: MIC by standard agar plate dilution method. To be noted: ATCC6633, Table 1, Mueller-Hinton agar. It counts as cell-based. How it is done:
as §1

For data set [14], the system named is Staphylococcus aureus 252R. Kind of data set: MIC by standard agar plate dilution method. In kind it is cell-based. The protocol:
as §1

In data set [15] the test system is Serratia marcescens 7006. Kind of data set: Protective effects on bacterial infections in mice. It counts as in vivo. The note with it: 168 h. The protocol: (§3) Ten male mice weighing 20±1 g were used for each dose level. Mice were challenged via the intraperitoneal route with sufficient bacteria to kill all non-treated mice within 24 hours. All bacteria were suspended in 6 % mucin. A test compound were administered intramuscularly one hour after the infection. Survival ratios were determined 7 days after the infection. The median effective doses (ED50, mg/kg) of the test compound were estimated by the probito analysis.

Data set [16] has as its system Escherichia coli KC-14. Kind of data set: Protective effects on bacterial infections in mice. To be noted: KC14, im, 168 h, intramuscular one hour after intraperitoneal infection, survival at 7 days. It counts as in vivo. How it is done:
as §3

Data set [17] deals with Staphylococcus aureus Smith. Kind of data set: Protective effects on bacterial infections in mice. The note with it: im, 168 h. In kind it is in vivo. How it is done:
as §3

Data set [18] relates to Citrobacter freundii 916. As to the kind of experiment: Protective effects on bacterial infections in mice. In kind it is in vivo. To be noted: 168 h. The protocol:
as §3

The subject of data set [19] is Enterobacter aerogenes 816. Kind of data set: Protective effects on bacterial infections in mice. It counts as in vivo. To be noted: 168 h. The protocol: as §3
The mark [20] stands for this setting: CN478, agar dilution method, cultured for 20 hours at 37° C., Streptococcus faecalis CN 478, read-out: minimum inhibitory concentration (M.I.C.).
The mark [21] stands for this setting: Table 1, Mueller-Hinton agar, Serratia marcescens 7006, read-out: M.I.C.
The mark [22] stands for this setting: Table 2, Serratia marcescens 7006, read-out: M.I.C. (in parentheses).
[23] abbreviates: Table 2, Staphylococcus aureus Smith.
The mark [24] stands for this setting: Table 2, Citrobacter freundii 916, read-out: M.I.C. (in parentheses).
Setting [25] is: Klebsiella aerogenes, Table 2, Enterobacter aerogenes 816, read-out: M.I.C. (in parentheses).
Where [26] appears, read: Table 1, Mueller-Hinton agar, Staphylococcus aureus 252R, read-out: M.I.C.
Where [27] appears, read: im, Serratia marcescens 7006, intramuscular one hour after intraperitoneal infection, survival at 7 days, read-out: ED50.
The mark [28] stands for this setting: Staphylococcus aureus Smith, intramuscular one hour after intraperitoneal infection, survival at 7 days, read-out: ED50.
Where [29] appears, read: im, Citrobacter freundii 916, intramuscular one hour after intraperitoneal infection, survival at 7 days, read-out: ED50.
Setting [30] is: Klebsiella aerogenes, im, Enterobacter aerogenes 816, intramuscular one hour after intraperitoneal infection, survival at 7 days, read-out: ED50.
Setting [31] is: CN478, Table 1, Mueller-Hinton agar, Streptococcus faecalis CN-478, read-out: M.I.C.

With `CN1CCC(O/N=C(\C(=O)N[C@@H]2C(=O)N3C(C(=O)O)=C(CSc4nnnn4C)CS[C@H]23)c2csc(N)n2)C1=O` (stereo partly drawn) [7β-{(Z)-2-(2-aminothiazol-4-yl)-2-[(1-methyl-2-pyrrolidon-3-yl)oxyiminoacetamido}-3-[(1-methyl-1H-tetrazol-5-yl)thiomethyl]-3-cephem-4-carboxylic acid], the MIC in [1] (setting [20]) stood at 25 µg/mL (≈ 42 µM).

Regarding `Nc1nc(/C(=N/O[C@H]2CCNC2=O)C(=O)N[C@@H]2C(=O)N3C(C(=O)[O-])=C(C[n+]4ccccc4)CS[C@H]23)cs1` [Example 6, 7β-{(Z)-2-(2-aminothiazol-4-yl)-2-[(2-pyrrolidon-3-yl)oxyimino]acetamido}-3-(1-pyridiniomethyl)-3-cephem-4-carboxylate (l-isomer)], the MIC in data set [2] (setting [21]) is at most 0.05 µg/mL; in [2] (setting [22]), 0.05 µg/mL (≈ 0.092 µM); in [3], 0.05 µg/mL (≈ 0.092 µM); in [4] (setting [23]), 1.56 µg/mL (≈ 2.87 µM); in data set [5] (setting [24]), 0.1 µg/mL (≈ 0.184 µM); in [6] (setting [25]), 0.39 µg/mL (≈ 0.717 µM). Also, the MIC in data set [8] is 0.39 µg/mL (≈ 0.717 µM); in data set [9], 0.78 µg/mL (≈ 1.43 µM); in data set [10], at most 0.05 µg/mL; in data set [11], 0.05 µg/mL (≈ 0.092 µM); in [12], 1.56 µg/mL (≈ 2.87 µM); in data set [13], 0.2 µg/mL (≈ 0.368 µM). For the same compound, the MIC is 25 µg/mL (≈ 46 µM) in data set [14] (setting [26]), 12.5 µg/mL (≈ 23 µM) in [1] (setting [31]) and 12.5 µg/mL (≈ 23 µM) in data set [1] (setting [20]). For the same compound, the deaths of rats entry in [7] was “no rats die”. Further, the ED50 in data set [15] (setting [27]) worked out at 0.14 mg/kg; in data set [16], 0.05 mg/kg; in [17] (setting [28]), 1.71 mg/kg; in data set [18] (setting [29]) it was 0.06 mg/kg; in data set [19] (setting [30]), 1.37 mg/kg.

For the compound `CC(C)(O/N=C(\C(=O)N[C@@H]1C(=O)N2C(C(=O)[O-])=C(C[n+]3ccccc3)CS[C@H]12)c1csc(N)n1)C(=O)O` [Ceftazidime, 7β-[(Z)-2-(2-aminothiazol-4-yl)-2-(2-carboxyprop-2-yloxyimino)acetamido]-3-(1-pyridiniomethyl)-3-cephem-4-carboxylate], the MIC was 0.2 µg/mL (≈ 0.366 µM) in data set [2] (Serratia marcescens, 7006); 0.2 µg/mL (≈ 0.366 µM) in [2] (Serratia marcescens, 7006, read-out: M.I.C. (in parentheses)); 0.05 µg/mL (≈ 0.0915 µM) in data set [3]; 12.5 µg/mL (≈ 22.9 µM) in data set [4] (Staphylococcus aureus); 0.39 µg/mL (≈ 0.714 µM) in [5] (Citrobacter freundii, 916, read-out: M.I.C. (in parentheses)); 6.25 µg/mL (≈ 11.4 µM) in data set [6] (Klebsiella aerogenes, 816, read-out: M.I.C. (in parentheses)). The MIC in data set [8] is 0.78 µg/mL (≈ 1.43 µM); in data set [9], 12.5 µg/mL (≈ 22.9 µM); in [10], 0.2 µg/mL (≈ 0.366 µM); in data set [11], 0.1 µg/mL (≈ 0.183 µM); in [12] it was 12.5 µg/mL (≈ 22.9 µM); in [13], 3.13 µg/mL (≈ 5.73 µM). For the same compound, the MIC in data set [14] (Staphylococcus aureus, 252R) was over 100 µg/mL; in data set [1] (CN478), over 100 µg/mL; in data set [1] (CN478, 20 h, read-out: minimum inhibitory concentration (M.I.C.)), over 100 µg/mL. The 50% effective dose (ED50) was found to be 0.54 mg/kg in data set [15] (Serratia marcescens, 7006, im); 0.08 mg/kg in data set [16]; 7.85 mg/kg in data set [17] (Staphylococcus aureus); 0.15 mg/kg in data set [18] (Citrobacter freundii, 916, im); 26.4 mg/kg in [19] (Klebsiella aerogenes, 816, im).

For `CO/N=C(\C(=O)N[C@@H]1C(=O)N2C(C(=O)O)=C(CSc3nnnn3C)CS[C@H]12)c1csc(N)n1` [Cefmenoxime, 7β-[(Z)-2-(2-aminothiazol-4-yl)-2-(methoxyimino)acetamido]-3-[(1-methyl-1H-tetrazol-5-yl)thiomethyl]-3-cephem-4-carboxylic acid], the MIC in data set [2] (setting [21]) amounted to 0.2 µg/mL (≈ 0.391 µM); in data set [2] (setting [22]), 0.2 µg/mL (≈ 0.391 µM); in [3], 0.025 µg/mL (≈ 0.0489 µM); in data set [4] (setting [23]), 1.56 µg/mL (≈ 3.05 µM); in [5] (setting [24]), 0.05 µg/mL (≈ 0.0977 µM); in data set [6] (setting [25]) it was 1.56 µg/mL (≈ 3.05 µM). The MIC in [8] is 6.25 µg/mL (≈ 12.2 µM); in data set [9], 1.56 µg/mL (≈ 3.05 µM); in [10] it was 0.1 µg/mL (≈ 0.195 µM); in data set [11] it was 0.1 µg/mL (≈ 0.195 µM); in data set [12], 100 µg/mL (≈ 195 µM); in data set [13], 1.56 µg/mL (≈ 3.05 µM). Moreover, the MIC in data set [14] (setting [26]), in data set [1] (setting [31]) and in [1] (setting [20]) was over 100 µg/mL in each case. Besides, the ED50 in data set [15] (setting [27]) was 0.88 mg/kg; in [16], 0.16 mg/kg; in data set [17] (setting [28]) it was 5.32 mg/kg; in data set [18] (setting [29]), 0.19 mg/kg; in data set [19] (setting [30]), 23.9 mg/kg.

As to `Cn1nnnc1SCC1=C(C(=O)O)N2C(=O)[C@@H](NC(=O)/C(=N\OC3CCNC3=O)c3csc(N)n3)[C@H]2SC1` (stereo partly drawn) [7β{(Z)-2-(2-aminothiazol-4-yl)-2-[(2-pyrrolidon-3-yl)oxyimino]-acetamido}-3-[(1-methyl-1H-tetrazol-5-yl)thio-methyl]-3-cephem-4-carboxylic acid], the “antimicrobial activity stronger than those of Cefmenoxime and Ceftazidime” value in data set [14] (Staphylococcus aureus 252R, relative to Cefmenoxime and Ceftazidime) was “more than 16 times”.
